In PMC5346723, “Delivery of a peptide-drug conjugate targeting the blood brain barrier improved the efficacy of paclitaxel against glioma” (Oncotarget, 2016):
Peptide text beside a SMILES is read from it. * marks the point of attachment. Biotin = O=C1N[C@H]2[C@H](CS[C@H]2CCCCC(=O)*)N1

Tests used:
[1] = test system: U87 glioblastoma brain tumor tissue; assay: Brain extraction of biotin labelled peptides after tail vein injection in mice with intracerebral U87 tumors; type: in vivo, CD-1 nude mice; details: 50 μg/kg, brain removed 15 min after injection, tumor implanted right hemisphere, biotin quantitative kit, P<0.05
Experimental: Biotin ANG and biotin ANG-TAT (50 μg/kg body weight) were injected into the tail vein of CD-1 nude mice carrying intracerebral implants of U87 glioblastoma cells. Fifteen minutes after injection the mice were killed, and the brains were surgically removed. The brain tissues were dissected and maintained in cold saline containing protease inhibitors until processing. To compare normal and tumor brain tissue, the right hemisphere (implanted hemisphere) was compared with the left hemisphere (non-implanted hemisphere). To extract biotin ANG and biotin ANG-TAT, tissues were mechanically homogenized in homogenization buffer (0.1 M Tris–HCl, pH 5.0, 50 mM sucrose, 0.003% Tween-80, and protease inhibitor cocktail) on ice. Acetonitrile (ACN) 100% was added to a final concentration of 65% (v/v). The mixture was stirred for 10 min in a cold room and then centrifuged at 3000 r.p.m. for 5 min. Acetonitrile supernatants were collected and dried in a rotative evaporator and finally freeze-dried. The concentration of biotin ANG and biotin ANG-TAT in the samples was determined using biotin quantitative kit from Elabsciences, Inc (Shanghai, China).
The U87 cell line was used to assess peptide uptake in an animal model of glioma. Cells suspension were prepared at a final concentration of 1×10^4 cells/ml in PBS and kept on ice until injection. […]

[2] = test system: U87 glioblastoma cells; assay: MTT assay; type: cell-based, human; details: 1 × 10^5 cells/100 μl/well, 96-well, 37°C, sample concentration for the table not stated (0.1-2.5 mg/mL tested), absorbance 570 nm
Experimental: The cytotoxicity of ANG, ANG-TAT, ANG-PTX and ANG-TAT-PTX were determined using the 3-[4,5-dimethylthiazol-2-yl]-2,5-diphenyl tetrazolium bromide (MTT) assay. Human U87 glioblastoma cell (1×10^5 cells/100 μl per well) were cultured in 96-well plates at 37°C in 5% CO2. Aqueous solutions of the samples were dissolved in culture medium at final concentrations of 0.1, 0.5, 1, and 2.5 mg/mL. After incubation for 24 and 48 hours, the MTT solution (in 2 mg/mL phosphate-buffered saline) was added, the plates were incubated for 4 hours, and the cells were lysed with 50% N, N-dimethylformamide containing 20% sodium dodecyl sulfate (pH 4.5). Absorbance at 570 nm was measured for each well using a SpectraMax M5 (Molecular Devices, Sunnyvale, CA USA). The absorbance of control cells was taken as 100% viability, and the values of the treated cells were calculated as a percentage of the control.

| Compound | Amount extracted from tumor tissue relative to biotin ANG [1] [fold] | MTT assay of ANG-TAT-PTX in tumor cells, 24h ([2]; 5% CO2, 24 h incubation) | MTT assay of ANG-TAT-PTX in tumor cells, 48h ([2]; 5% CO2, 48 h incubation) |
| --- | --- | --- | --- |
| C[C@@H](O)[C@H](N)C(=O)N[C@@H](Cc1ccccc1)C(=O)N[C@@H](Cc1ccccc1)C(=O)N[C@@H](Cc1ccc(O)cc1)C(=O)NCC(=O)NCC(=O)N[C@@H](CO)C(=O)N[C@@H](CCCNC(=N)N)C(=O)NCC(=O)N[C@@H](CCCCN)C(=O)N[C@@H](CCCNC(=N)N)C(=O)N[C@@H](CC(N)=O)C(=O)N[C@@H](CC(N)=O)C(=O)N[C@@H](Cc1ccccc1)C(=O)N[C@@H](CCCCNC(=O)CCCC[C@@H]1SC[C@@H]2NC(=O)N[C@@H]21)C(=O)N[C@H](C(=O)N[C@@H](CCC(=O)O)C(=O)N[C@@H](CCC(=O)O)C(=O)N[C@@H](Cc1ccc(O)cc1)C(=O)NCC(=O)N[C@@H](CCCNC(=N)N)C(=O)N[C@@H](CCCCN)C(=O)N[C@@H](CCCCN)C(=O)N[C@@H](CCCNC(=N)N)C(=O)N[C@@H](CCCNC(=N)N)C(=O)N[C@@H](CCC(N)=O)C(=O)N[C@@H](CCCNC(=N)N)C(=O)N[C@@H](CCCNC(=N)N)C(=O)N[C@@H](CCCNC(=N)N)C(=O)N1CCC[C@H]1C(=O)N1CCC[C@H]1C(=O)N[C@@H](CCC(N)=O)C(=O)N[C@@H](CCC(N)=O)C(=O)O)[C@@H](C)O [biotin ANG-TAT] (H-TFFYGGSRGKRNNFK(Biotin)TEEYGRKKRRQRRRPPQQ-OH) | 1.8 |  |  |
| CC(=O)O[C@H]1C(=O)[C@@]2(C)[C@H]([C@H](OC(=O)c3ccccc3)[C@]3(O)C[C@H](OC(=O)[C@H](O)[C@@H](NC(=O)c4ccccc4)c4ccccc4)C(C)=C1C3(C)C)[C@]1(OC(C)=O)CO[C@@H]1C[C@@H]2O [Free PTX, Paclitaxel] |  | 20.53±2.21 | 42.36±2.35 |
